ChEMBL document CHEMBL4651402, “Screening of ~5500 FDA-approved drugs and clinical candidates for anti-SARS-CoV-2 activity” (2021)
pIC50: −log10 of the molar value.

Test system: SARS-CoV-2
Experiment: microbe, parasite or virus in culture
Conditions: Severe acute respiratory syndrome coronavirus 2, Vero C1008, 48 h; for IC50: read-out: pIC50 (converted)

| SMILES | pIC50 | IC50 |
| --- | --- | --- |
| CN1CCC(c2c[nH]c3ccc(NC(=O)c4ccc(F)cc4)cc23)CC1 | < 4.70 | > 20 µM |
| CCCCC(=O)N(Cc1ccc(-c2ccccc2-c2nnn[nH]2)cc1)[C@H](C(=O)O)C(C)C | < 4.70 | > 20 µM |
| O=C(O)C1(C(=O)O)CCC1 | < 4.70 | > 20 µM |
| C[N+]1(C)C[C@H](O)C[C@H]1C(=O)O | < 4.70 | > 20 µM |
| C=C1c2c(Cl)ccc(O)c2C(=O)C2=C(O)[C@]3(O)C(=O)C(C(N)=O)=C(O)[C@@H](N(C)C)[C@@H]3[C@@H](O)C12 (stereo partly specified) | < 4.70 | > 20 µM |
| CC[C@@H](C(N)=O)N1CCCC1=O | < 4.70 | > 20 µM |
| CO/N=C(\C#N)[C@@H]1CN2CCC1CC2 | < 4.70 | > 20 µM |
| COC(=O)Nc1nc2cc(SC(C)C)ccc2[nH]1 | < 4.70 | > 20 µM |
| CC(C)c1nc(N(C)S(C)(=O)=O)nc(-c2ccc(F)cc2)c1/C=C/C(O)CC(O)CC(=O)O (stereo unspecified) | < 4.70 | > 20 µM |
| CS(=N)(=O)CC[C@H](N)C(=O)O (stereo partly specified) | < 4.70 | > 20 µM |
| COc1nccnc1NS(=O)(=O)c1ccc(N)cc1 | < 4.70 | > 20 µM |
| C/C=C1/C[N+]2(C)CCC34C(=C(C=O)[C@H]1C[C@@H]32)Nc1ccccc14 (stereo partly specified) | < 4.70 | > 20 µM |
| Cc1noc(COc2ccccc2OCC(O)CNC(C)(C)C)n1 (stereo unspecified) | < 4.70 | > 20 µM |
| CO[C@H]1C=C2CCN(C)[C@H]2C2c3cc4c(cc3C(=O)O[C@@H]21)OCO4 (stereo partly specified) | < 4.70 | > 20 µM |
| Cc1n[nH]c(=O)[nH]c1=O | < 4.70 | > 20 µM |
| C[N+]1(CCC(C(N)=O)(c2ccccc2)c2ccccc2)CCCCC1 | < 4.70 | > 20 µM |
| CNC(=O)c1ccc2cc([C@]3(O)CCn4cncc43)ccc2c1 | < 4.70 | > 20 µM |

| SMILES | pIC50 | IC50 |
| --- | --- | --- |
| CC(C(N)C(=O)NC(C(=O)O)C1OC(n2ccc(=O)[nH]c2=O)C(O)C1O)C(O)c1ccc(O)cn1 (stereo unspecified) | < 4.70 | > 20 µM |
| CC1=CCCC2C1(C)CCC(C)C2(C)Cc1cc(O)ccc1O (stereo unspecified) | < 4.70 | > 20 µM |
| CCOC(=O)/C=C/[C@H](C[C@@H]1CCNC1=O)NC(=O)[C@@H](CC(=O)[C@@H](NC(=O)c1cc(C)on1)C(C)C)Cc1ccc(F)cc1 | < 4.60 | > 25.1 µM |
| Cc1cc(S(N)(=O)=O)ccc1NC(=O)COc1ccc(Cl)cc1C(=O)c1cc(Cl)cc(C#N)c1 | < 4.70 | > 20 µM |
| CCc1cc(Nc2nc(-c3ccc(-n4cnc(C)c4)c(F)c3)cs2)c(C)cc1C | < 4.70 | > 20 µM |
| NC(CC(=O)NO)C(=O)O (stereo unspecified) | < 4.70 | > 20 µM |
| CCC(CC)[C@H](c1ccc(Nc2nc3ccccc3s2)cc1)n1cncn1 | < 4.70 | > 20 µM |
| O=C(Nc1ccccc1Br)N[C@H]1CCN(c2ccc(C(F)(F)F)cn2)C1 | < 4.70 | > 20 µM |
| O=[N+]([O-])OC1COC2C(O[N+](=O)[O-])COC12 (stereo unspecified) | < 4.70 | > 20 µM |
| Nc1nc(F)nc2c1ncn2[C@@H]1O[C@H](CO)[C@@H](O)[C@H]1O | < 4.70 | > 20 µM |
| O=C(O)[C@H](O)[C@@H](O)[C@H](O[C@@H]1O[C@H](CO)[C@H](O)[C@H](O)[C@H]1O)[C@H](O)CO | < 4.70 | > 20 µM |
| CCCN1CCC[C@@H](c2cccc(S(C)(=O)=O)c2)C1 | < 4.70 | > 20 µM |
| NC(=O)N=NC(N)=O | < 4.70 | > 20 µM |
| Cc1ccc(S(=O)(=O)Nc2nc3ccccc3nc2Nc2ccc3nsnc3c2)cc1 | < 4.70 | > 20 µM |
| CC(C)CN(C[C@@H](O)[C@H](Cc1ccccc1)NC(=O)[C@H](CC(N)=O)NC(=O)c1ccc2ccccc2n1)C(=O)NC(C)(C)C | < 4.70 | > 20 µM |
| O=C1N[11C](=O)C(c2ccccc2)(c2ccccc2)N1 | < 4.70 | > 20 µM |
